Results: article PMC9820345, “Metal Complexes of a 5-Nitro-8-Hydroxyquinoline-Proline Hybrid with Enhanced Water Solubility Targeting Multidrug Resistant Cancer Cells” (International Journal of Molecular Sciences, 2022)

Target: T1, OATP1B1 (Homo sapiens, UniProt Q9Y6L6)
T1 construct: expressed in transfected cells; host or cells: A431 epidermoid carcinoma cells
T1 sequence (Q9Y6L6 1-691): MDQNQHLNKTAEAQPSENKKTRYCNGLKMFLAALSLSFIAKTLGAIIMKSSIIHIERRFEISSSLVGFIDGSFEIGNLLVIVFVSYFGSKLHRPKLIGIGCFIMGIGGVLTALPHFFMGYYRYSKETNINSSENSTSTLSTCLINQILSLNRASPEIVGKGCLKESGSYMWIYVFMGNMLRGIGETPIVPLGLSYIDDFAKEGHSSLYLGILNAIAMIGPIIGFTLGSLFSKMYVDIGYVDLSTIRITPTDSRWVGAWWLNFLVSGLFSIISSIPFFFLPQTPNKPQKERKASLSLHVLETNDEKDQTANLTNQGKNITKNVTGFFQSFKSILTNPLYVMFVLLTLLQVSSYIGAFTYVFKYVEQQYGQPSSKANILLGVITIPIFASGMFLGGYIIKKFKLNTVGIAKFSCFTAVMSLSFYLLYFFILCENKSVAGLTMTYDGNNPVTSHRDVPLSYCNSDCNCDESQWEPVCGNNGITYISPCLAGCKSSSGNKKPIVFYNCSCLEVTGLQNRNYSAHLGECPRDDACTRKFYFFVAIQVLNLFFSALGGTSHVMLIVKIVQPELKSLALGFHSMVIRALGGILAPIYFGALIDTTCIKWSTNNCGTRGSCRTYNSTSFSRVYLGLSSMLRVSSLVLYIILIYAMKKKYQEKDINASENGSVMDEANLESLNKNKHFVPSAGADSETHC
Test: OATP uptake assay, OATP1B1
Format: cell-based
Conditions: human, 10 μM
Experimental: Cell lines: A431 cells overexpressing OATP1B1 or OATP2B1, and their mock transfected controls were generated and characterized previously. The cell lines were cultured in DMEM (Gibco, Thermofisher Scientific, Waltham, MA, USA), supplemented with 10% fetal bovine serum, 2 mM L-glutamine, 100 μg/mL streptomycin, and 100 units/mL penicillin at 37 °C and 5% CO2.
OATP uptake assay: Prior to the experiment, A431 cells (8 × 10^4/well) were seeded on 96-well plates in 200 μL cell culture medium. After 16–24 h, the cells were washed with 200 μL PBS, three times and pre-incubated with 20–200 μM HQNO2-L-Pro, or buffer without HQNO2-L-Pro for 5 min at 37 °C in 50 μL HBSS (Hank’s Balanced Salt Solution, pH 7.4; OATP1B1) or uptake buffer (pH 5.5; OATP2B1 [63]). The reaction was started by the addition of disulfopyrene (6,8-dihydroxy-1,3-pyrenedisulfonic acid disodium salt, Sigma, Darmstadt, Germany) at a final concentration of 10 μM (OATP1B1) or pyranine (8-hydroxypyrene-1,3-pyrenetrisulfonic acid trisodium salt, Sigma, Darmstadt, Germany) at a final concentration of 20 μM (OATP2B1), and the cells were further incubated at 37 °C for 10 min (OATP1B1) or 15 min (OATP2B1). The reaction was stopped by removing the supernatant after which the cells were washed three times with ice-cold PBS. Fluorescence (in 200 μL PBS) was determined using an Enspire plate reader (PerkinElmer, Waltham, MA, USA) with excitation/emission wavelengths of 460/510 nm. OATP-dependent transport was calculated by subtracting fluorescence measured in mock transfected cells. Transport activity was calculated based on the fluorescence signal in the absence (100%) of HQNO2-L-Pro. Experiments were repeated in at least three biological replicates.

SMILES: O=C(O)[C@@H]1CCCN1Cc1cc([N+](=O)[O-])c2cccnc2c1O [HQNO2-L-Pro, (2S)-1-((8-hydroxy-5-nitroquinolin-7-yl)methyl)pyrrolidin-1-ium-2-carboxylate]
- activity at 10 min, 100 µM (A431 cells overexpressing OATP1B1, pH 7.4, probe disulfopyrene, 100 μM, absence of compound = 100%, n = 3, ± SD, read-out: transport activity % OATP1B1): 88.1 ± 5.9%
- activity at 10 min, 10 µM (A431 cells overexpressing OATP1B1, pH 7.4, probe disulfopyrene, absence of compound = 100%, n = 3, ± SD, read-out: transport activity % OATP1B1): 106 ± 4.1%
- inhibition at 10 min, 100 µM (probe disulfopyrene, at 100 μM, A431 cells overexpressing OATP1B1, pH 7.4, read-out: inhibition of OATP1B1 function): < 20%
